Data published in US8153663B2, “3-amino-indazole or 3-amino-4,5,6,7-tetrahydro-indazole derivatives” (Hoffmann-La Roche Inc., priority 2008, dated 2012).
pIC50: −log10 of the molar value.

Target: T1, FXR ligand binding domain (GST-FXR LBD fusion protein, human FXR aa 193-473) (Homo sapiens, UniProt Q96RI1)
T1 construct: made in house; host or cells: E. coli BL21(pLysS)
T1 sequence (Q96RI1 193-472 isoform Q96RI1-2 limits assumed): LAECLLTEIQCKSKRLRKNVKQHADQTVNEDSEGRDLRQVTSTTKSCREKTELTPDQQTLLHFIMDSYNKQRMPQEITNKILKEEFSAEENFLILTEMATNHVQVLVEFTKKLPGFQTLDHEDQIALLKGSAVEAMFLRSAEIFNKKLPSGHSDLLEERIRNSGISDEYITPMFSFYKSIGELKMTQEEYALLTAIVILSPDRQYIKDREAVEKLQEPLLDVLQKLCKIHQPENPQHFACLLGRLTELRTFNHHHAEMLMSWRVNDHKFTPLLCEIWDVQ
Experiment: Radioligand binding assay (radioligand displacement, scintillation proximity)
Settings: 40 nM GST-FXR LBD on SPA beads, radioligand 2,N-dicyclohexyl-2-[2-(2,4 dimethoxy-phenyl)-benzoimidazol-1-yl]-acetamide, RT 30 minutes
Experimental: The following tests were carried out in order to determine the activity of the compounds of formula I. Background information on the binding assay can be found in: Nichols J S et al. “Development of a scintillation proximity assay for peroxisome proliferator-activated receptor gamma ligand binding domain”, (1998) Anal. Biochem. 257: 112-119.
Bacterial and mammalian expression vectors were constructed to produce glutathione-s-transferase (GST) and Gal4 DNA binding domain (GAL) proteins fused to the ligand binding domain (LBD) of human FXR (aa 193-473). To accomplish this, the portions of the sequences encoding the FXR LBD were amplified by polymerase chain reaction (PCR) from a full-length clone by PCR and then subcloned into the plasmid vectors. The final clone was verified by DNA sequence analysis.
The induction, expression, and subsequent purification of GST-LBD fusion protein was performed in E. coli strain BL21(pLysS) cells by standard methods (Current Protocols in Molecular Biology, Wiley Press, ed. Ausubel et al).
Radioligand Binding Assay
Binding of test substances to the FXR ligand binding domain was assessed in a radioligand displacement assay. The assay was performed in a buffer consisting of 50 mM Hepes, pH 7.4, 10 mM NaCl, 5 mM MgCl2. For each reaction well in a 96-well plate, 40 nM of GST-FXR LBD fusion protein was bound to 10 μg glutathione ytrium silicate SPA beads (Pharmacia Amersham) in a final volume of 50 μl by shaking. A radioligand (e.g. 40 nM) of 2,N-dicyclohexyl-2-[2-(2,4 dimethoxy-phenyl)-benzoimidazol-1-yl]-acetamide) was added, and the reaction incubated at RT for 30 minutes in the presence of test compounds followed by scintillation proximity counting. All binding assays were performed in 96-well plates and the amount of bound ligand was measured on a Packard TopCount using OptiPlates (Packard). Dose response curves were performed within a range of concentration from 6×10^−9 M to 2.5×10^−5 M.

Structure (SMILES) | pIC50
CCCCN(C(=O)Nc1ccc(C(=O)O)cc1Cl)c1c2ccccc2nn1-c1ccc(Cl)cc1 [Example 12, 4-{3-Butyl-3-[2-(4-chloro-phenyl)-2H-indazol-3-yl]-ureido}-3-chloro-benzoic acid] | 6.10
O=C(O)Cc1ccc(NC(=O)N(c2c3ccccc3nn2-c2ccc(Cl)cc2)C2CCCCC2)c(Cl)c1 [Example 21, (3-Chloro-4-{3-[2-(4-chloro-phenyl)-2H-indazol-3-yl]-3-cyclohexyl-ureido}-phenyl)-acetic acid] | 6.14
O=C(NC1CCCCC1)N(c1ccccc1)c1c2ccccc2nn1-c1ccc(Cl)cc1 [Example 15, 1-[2-(4-Chloro-phenyl)-2H-indazol-3-yl]-3-cyclohexyl-1-phenyl-urea] | 6.34
COCCN(C(=O)NC1CCCCC1)c1c2ccccc2nn1-c1ccc(Cl)cc1 [Example 17, 1-[2-(4-Chloro-phenyl)-2H-indazol-3-yl]-3-cyclohexyl-1-(2-methoxy-ethyl)-urea] | 5.63
O=C(NC1CCCCC1)N(c1c2ccccc2nn1-c1ccccc1)C1CCCCC1 [Example 1, 1,3-Dicyclohexyl-1-(2-phenyl-2H-indazol-3-yl)-urea] | 7.40
O=C(O)c1ccc(NC(=O)N(c2c3cc(F)c(F)cc3nn2-c2ccc(Cl)cc2)C2CCCCC2)c(Cl)c1 [Example 16, 3-Chloro-4-{3-[2-(4-chloro-phenyl)-5,6-difluoro-2H-indazol-3-yl]-3-cyclohexyl-ureido}-benzoic acid] | 6.40
O=C(NC1CCCCC1)N(c1c2ccccc2nn1-c1ccc(Cl)cc1)C1CCOCC1 [Example 10, 1-[2-(4-Chloro-phenyl)-2H-indazol-3-yl]-3-cyclohexyl-1-(tetrahydro-pyran-4-yl)-urea] | 6.18
O=C(NC1CCCCC1)N(c1c2ccccc2nn1-c1ccc(Cl)cc1)C1CCCCC1 [Example 11, 1-[2-(4-Chloro-phenyl)-2H-indazol-3-yl]-1,3-dicyclohexyl-urea] | 7.70
O=C(NC1CCCCC1)N(c1cccc(Cl)c1)c1c2ccccc2nn1-c1ccc(Cl)cc1 [Example 19, 1-(3-Chloro-phenyl)-1-[2-(4-chloro-phenyl)-2H-indazol-3-yl]-3-cyclohexyl-urea] | 7.70
CCCCN(C(=O)NC1CCCCC1)c1c2ccccc2nn1-c1ccc(Cl)cc1 [Example 4, 1-Butyl-1-[2-(4-chloro-phenyl)-2H-indazol-3-yl]-3-cyclohexyl-urea] | 6.74
O=C(O)c1ccc(NC(=O)N(Cc2ccccc2)c2c3ccccc3nn2-c2ccc(Cl)cc2)c(Cl)c1 [Example 9, 4-{3-Benzyl-3-[2-(4-chloro-phenyl)-2H-indazol-3-yl]-ureido}-3-chloro-benzoic acid] | 5.97
O=C(Nc1ccccc1F)N(c1c2ccccc2nn1-c1ccccc1)C1CCCCC1 [Example 3, 1-Cyclohexyl-3-(2-fluoro-phenyl)-1-(2-phenyl-2H-indazol-3-yl)-urea] | 6.08

More lines, now with the values ahead:

pIC50 | Structure (SMILES)
7.15 | O=C(NC1CCCCC1)N(c1ccc(F)c(Cl)c1)c1c2ccccc2nn1-c1ccc(Cl)cc1 [Example 28, 1-(3-Chloro-4-fluoro-phenyl)-1-[2-(4-chloro-phenyl)-2H-indazol-3-yl]-3-cyclohexyl-urea]
7.70 | O=C(NC1CCCCC1)N(c1cccc(Cl)c1)c1c2ccc(F)cc2nn1-c1cccc(Cl)c1 [Example 35, 1-(3-Chloro-phenyl)-1-[2-(3-chloro-phenyl)-6-fluoro-2H-indazol-3-yl]-3-cyclohexyl-urea]
6.62 | O=C(NC1CCCC1)N(c1c2ccccc2nn1-c1ccc(Cl)cc1)C1CCCC1 [Example 38, 1-[2-(4-Chloro-phenyl)-2H-indazol-3-yl]-1,3-dicyclopentyl-urea]
7.10 | O=C(NC1CCCCC1)N(c1cccc(Cl)c1)c1c2cc(F)c(F)cc2nn1-c1cccc(Cl)c1 [Example 43, 1-(3-Chloro-phenyl)-1-[2-(3-chloro-phenyl)-5,6-difluoro-2H-indazol-3-yl]-3-cyclohexyl-urea]
5.47 | CC(C)(C(=O)O)c1ccc(NC(=O)N(c2c3ccccc3nn2-c2ccc(Cl)cc2)C2CCCCC2)c(F)c1 [Example 32, 2-(4-{3-[2-(4-Chloro-phenyl)-2H-indazol-3-yl]-3-cyclohexyl-ureido}-3-fluoro-phenyl)-2-methyl-propionic acid]
6.47 | O=C(O)CCc1ccc(NC(=O)N(c2c3ccccc3nn2-c2ccc(Cl)cc2)C2CCCCC2)c(F)c1 [Example 26, 3-(4-{3-[2-(4-Chloro-phenyl)-2H-indazol-3-yl]-3-cyclohexyl-ureido}-3-fluoro-phenyl)-propionic acid]
6.52 | O=C(N[C@H]1CC[C@H](O)CC1)N(c1cccc(Cl)c1)c1c2ccccc2nn1-c1ccc(Cl)cc1 [Example 41, trans-1-(3-Chloro-phenyl)-1-[2-(4-chloro-phenyl)-2H-indazol-3-yl]-3-(4-hydroxy-cyclohexyl)-urea]
7.22 | O=C(OC1CCCCC1)N(c1c2ccccc2nn1-c1ccc(Cl)cc1)C1CCCCC1 [Example 37, [2-(4-Chloro-phenyl)-2H-indazol-3-yl]-cyclohexyl-carbamic acid cyclohexyl ester]
7.00 | O=C(NC1CCCCC1)N(c1cccc(Cl)c1)c1c2ccc(F)cc2nn1-c1ccc(Cl)cc1 [Example 44, 1-(3-Chloro-phenyl)-1-[2-(4-chloro-phenyl)-6-fluoro-2H-indazol-3-yl]-3-cyclohexyl-urea]
6.10 | CCOc1cccc(N(C(=O)NC2CCCCC2)c2c3ccccc3nn2-c2ccc(Cl)cc2)c1 [Example 25, 1-[2-(4-Chloro-phenyl)-2H-indazol-3-yl]-3-cyclohexyl-1-(3-ethoxy-phenyl)-urea]
7.70 | O=C(NC1CCCCC1)N(c1c2ccc(F)cc2nn1-c1ccc(Cl)cc1)C1CCCCC1 [Example 40, 1-[2-(4-Chloro-phenyl)-6-fluoro-2H-indazol-3-yl]-1,3-dicyclohexyl-urea]
5.37 | O=C(O)c1ccc(NC(=O)N(c2c3ccccc3nn2-c2ccc(Cl)cc2)C2CCC2)c(Cl)c1 [Example 31, 3-Chloro-4-{3-[2-(4-chloro-phenyl)-2H-indazol-3-yl]-3-cyclobutyl-ureido}-benzoic acid]
